Assay results reported in patent US20250347680A1, “METHODS OF OPTIMIZING KINASE INHIBITORS” (Brandeis University, priority 2024, published 2025).

How the values were obtained:
[1] = system: p38α phosphorylation in HL60 cells; test: Western blot of p38α phosphorylation in HL60 cells after TNFα or LPS stimulation; assay type: cell-based, human; settings: for level of dual-phosphorylated p38α in HL60 cells: 10 μM inhibitor 30 minutes after stimulation with TNFα (40 ng/mL) or LPS; for level of dual-phosphorylated p38α in HL60 cells / single-tyrosine phosphorylated p38α / phospho-tyrosine in HL60 cells (phospho-site specific antibody) / threonine phosphorylation of p38α in HL60 cells (phospho-site specific antibody): western blot; for single-tyrosine phosphorylated p38α / phospho-tyrosine in HL60 cells (phospho-site specific antibody) / threonine phosphorylation of p38α in HL60 cells (phospho-site specific antibody): 10 μM inhibitor after TNFα stimulation; for p38α threonine phosphorylation in cells harvested immediately after addition of inhibitor: cells pretreated with TNFα
Procedure: Cell culture, reagents and antibodies: HL60 cells were maintained in RPM I media supplemented with 2 mM L-glutamine and 10% fetal bovine serum (FBS) at 37° C. in a humidified atmosphere of 5% CO2. HL60-APPM1A were generated. The following antibodies were obtained from Cell Signaling Technologies (Danvers, MA); PPM1A (cat. #3549), p38 (cat. #9212) and 2p-p38 (cat. #4511). The following antibodies were obtained from A B Clonal (Woburn, MA); p38-phospho-Y182 (cat. #AP0057) and p38-phospho-T180 (cat. #AP0056). B-actin antibody (cat. #sc-47778) was obtained from Santa Cruz Biotechnology (Santa Cruz, CA). Recombinant human TNFα (cat. #300-01A) was obtained from Peprotech (Cranbury, NJ). Lipopolysaccharide (LPS) 500× solution (cat. #50-112-9325) was obtained from Invitrogen (Waltham, MA).
Cellular assays: HL60 cells were cultured in 6 well plates and grown until a density of 2 million cells/mL. […] Cells were spun down at 500 xg for 5 minutes, carefully washed with PBS once, and lysed with 50 μL RIPA buffer supplemented with 1:1000 phosphatase inhibitor and 1:500 benzonase. Lysates were centrifuged at 10,000 rpm for 15 minutes. Supernatant was harvested and lysate was either analyzed immediately or flash-frozen and stored at −80° C.
Western blot: Protein concentration of the lysate was determined using Bradford reagent normalized to a standard curve. 40-50 μg total protein per sample was separated on a 10% Tris-tricine polyacrylamide gel and then transferred to a polyvinylidene (PV DF) membrane using the Bio-Rad transfer system. Standard blotting protocol was followed. Primary antibodies (see antibody section) were incubated overnight at 4° C. followed by near-infrared (NIR) labeled secondary antibodies Goat anti-Rabbit IgG (H+L) Cross-Adsorbed Secondary Antibody, DyLight™ 800 (cat #. SA5-10036) or IgG (H+L) Cross-Adsorbed Goat anti-mouse, DyLight™ 680, Invitrogen™ (cat #. 35519) obtained from Invitrogen (Waltham, MA) for 1 hour at room temperature in 2.5% milk in TBST. Blots were washed and imaged on a LI-COR imaging instrument.

MKK6 = settings: previous reports; cited from earlier work
p38α = target: T1, p38α (Homo sapiens, UniProt Q16539); test: WIP1 phosphatase assay: dephosphorylation of 32P-labelled dual-phosphorylated p38α bound to inhibitor; assay type: biochemical; settings: p38α 0.25 μM, WIP1 2.5 μM, inhibitor 1.25 μM
T1 construct: 6-His (cleaved yes); made in house; host or cells: E. coli BL21 (DE3)
Procedure: (§1) Following initial incubation, excess cold ATP was added for a final concentration of 12 mM and was incubated overnight. Unincorporated nucleotide was removed by buffer exchange using a Zeba™ spin column equilibrated in 50 mM K·HEPES pH7.5, 100 mM NaCl. 6His-MKK6^EE was then removed by Ni-NTA resin equilibrated in 50 mM K·HEPES pH7.5, 100 mM NaCl, 20 mM imidazole. The flow-through fraction from the Ni-NTA resin containing p38-^32P was then exchanged into 50 mM K·HEPES pH7.5, 100 mM NaCl buffer using 3 subsequent Zeba spin columns to remove all unincorporated nucleotide and free phosphate. Labeled p38-^32P was aliquoted and frozen at −80° C. for future use.
WIP1 and PPM1A: All WIP1 phosphatase assays were performed at room temperature in 50 mM K HEPES pH7.5, 0.8 mM CHAPS, 0.05 mg/mL BSA, and 15 mM MnCl2. WIP1 concentration was 2.5 μM, PPM1A concentration was 0.5 μM and p38-^32P was 0.25 μM unless otherwise stated. […] Reactions were stopped with 0.5 MEDTA, pH8.0 and run on PEI-Cellulose TLC plates developed in 1 M LiCl2 and 0.8 M acetic acid and imaged on a Typhoon™ scanner. Phosphatase assays were performed more than three independent times as separate experiments. Data shown in figures is from a single representative experiment, and reported errors are the error from the fit unless indicated otherwise.

p38α (T180A) = target: T2, p38α (T180A) (Homo sapiens, UniProt Q16539, T180A); test: DUSP3 dephosphorylation of single tyrosine phosphorylated p38α (T180A); assay type: biochemical; settings: DUSP3 15 μM, p38α T180A 0.25 μM, 5-fold excess inhibitor
T2 construct: 6-His (cleaved yes); made in house; host or cells: E. coli BL21 (DE3)
Procedure: as §1
DUSP3: All DUSP3 phosphatase assays were performed in 50 mM K HEPES pH7.5 and 100 mM NaCl. Reactions were stopped with SDS and run on PEI-Cellulose TLC plates run through water then developed in 1 M LiCl2 and 0.8 M acetic acid and imaged on a Typhoon scanner. Phosphatase assays were performed more than three independent times as separate experiments. Data shown in figures is from a single representative experiment, and reported errors are the error from the fit unless indicated otherwise.
+p38^T180A_32P: Reactions were run at room temperature with 15 μM DUSP3 and 0.25 μM p38^T180A_32.

p38 = p38 (Homo sapiens, UniProt Q16539); settings: initial biochemical kinase screening; cited from earlier work
MKK6 (Homo sapiens) = system: T3, MKK6 (Homo sapiens); test: Kinase assay: phosphorylation of p38α by MKK6; settings: biochemical assay; 50 μM inhibitor, 25 μM p38
T3 construct: made in house; host or cells: E. coli BL21 (DE3)
Procedure: Kinase assay: All kinase assays were performed at room temperature in 20 mM K HEPES PH7.5, 0.5 mMEDTA, 20 mM MgCl2 and 2 mM DTT. […] MKK6^EE was added to 25 μM p38, 25 μM cold ATP and 1 μCi of γ-^32P ATP. 50 μM p38 inhibitors were added to a final DMSO concentration of 5%. Reactions were stopped with SDS and run on PEI-Cellulose TLC plates run through water then developed in 1 M LiCl2 and 0.8 M acetic acid and imaged on a Typhoon™ scanner.

[2] = single turnover, relative to DMSO control

T1 sequence (Q16539 whole entry): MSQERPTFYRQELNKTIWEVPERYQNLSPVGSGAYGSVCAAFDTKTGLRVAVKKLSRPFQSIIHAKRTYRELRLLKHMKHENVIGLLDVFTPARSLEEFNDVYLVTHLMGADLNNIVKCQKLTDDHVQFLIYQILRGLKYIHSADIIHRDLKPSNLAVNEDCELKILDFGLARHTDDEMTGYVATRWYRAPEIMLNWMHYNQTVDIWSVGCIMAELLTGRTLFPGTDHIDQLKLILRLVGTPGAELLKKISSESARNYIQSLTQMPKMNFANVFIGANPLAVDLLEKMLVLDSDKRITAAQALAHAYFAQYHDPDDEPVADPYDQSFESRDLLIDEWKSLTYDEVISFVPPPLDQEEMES
T2 sequence (Q16539 whole entry T180A): as the sequence (Q16539 whole entry) above, with T180A counted along it
T3 sequence (Q16539 whole entry): as the sequence (Q16539 whole entry) above
Sequence of p38 (Q16539 whole entry): as above

Cc1ccc(-n2nc(C(C)(C)C)cc2NC(=O)Nc2ccc(OCCN3CCOCC3)c3ccccc23)cc1 [BIRB 796]
level of dual-phosphorylated p38α in HL60 cells [1]: disappeared
single-tyrosine phosphorylated p38α / phospho-tyrosine in HL60 cells (phospho-site specific antibody) [1]: increase
threonine phosphorylation of p38α in HL60 cells (phospho-site specific antibody) [1]: disappearance
p38α threonine phosphorylation in cells harvested immediately after addition of inhibitor [1]: completely disappeared
MKK6 dual phosphorylation measured by ELISA (MKK6): block

CC(C)(C)Cn1c(N)nc2ccc(-c3[nH]c(C(C)(C)C)nc3-c3ccc(F)cc3)nc21 [LY2228820]
level of dual-phosphorylated p38α in HL60 cells [1]: increased
decrease of the rate of threonine dephosphorylation of p38α by WIP1 (p38α; [2]): 5 fold

Oc1ccc(-c2nc(-c3ccncc3)c(-c3ccc(F)cc3)[nH]2)cc1 [SB202190]
level of dual-phosphorylated p38α in HL60 cells [1]: increased
threonine phosphorylation of p38α in HL60 cells (phospho-site specific antibody) [1]: increased
effect on rate of DUSP3 dephosphorylation of Y182 of p38α (T180A) (p38α (T180A)): no effect
decrease of the rate of threonine dephosphorylation of p38α by WIP1 (p38α; [2]): 5 fold

NC(=O)c1ccc2[nH]ccc2c1 [SD-169]
effect on WIP1 threonine dephosphorylation of p38α (in words) (p38α): no change on phosphatase activity

CCc1nc(-c2cccc(C)c2)c(-c2ccnc(NC(=O)c3ccccc3)c2)s1 [TAK-715]
level of dual-phosphorylated p38α in HL60 cells [1]: caused disappearance
single-tyrosine phosphorylated p38α / phospho-tyrosine in HL60 cells (phospho-site specific antibody) [1]: did not accumulate

O=c1ncn2nc(Sc3ccc(F)cc3F)ccc2c1-c1c(Cl)cccc1Cl [VX-745]
level of dual-phosphorylated p38α in HL60 cells [1]: caused disappearance
single-tyrosine phosphorylated p38α / phospho-tyrosine in HL60 cells (phospho-site specific antibody) [1]: did not accumulate
effect on WIP1 threonine dephosphorylation of p38α (in words) (p38α): did not affect

Cc1c(F)cc(C(=O)NC2CC2)cc1-c1ccc(C(=O)NCC(C)(C)C)cn1 [losmapimod]
level of dual-phosphorylated p38α in HL60 cells [1]: caused disappearance
single-tyrosine phosphorylated p38α / phospho-tyrosine in HL60 cells (phospho-site specific antibody) [1]: did not accumulate

Cc1cn(-c2cc(NC(=O)c3ccc(C)c(Nc4nccc(-c5cccnc5)n4)c3)cc(C(F)(F)F)c2)cn1 [nilotinib]
level of dual-phosphorylated p38α in HL60 cells [1]: disappeared
single-tyrosine phosphorylated p38α / phospho-tyrosine in HL60 cells (phospho-site specific antibody) [1]: increase
threonine phosphorylation of p38α in HL60 cells (phospho-site specific antibody) [1]: disappearance
p38α threonine phosphorylation in cells harvested immediately after addition of inhibitor [1]: completely disappeared
binding of p38 compared to primary target ABL (p38): weak off-target binder
effect on rate of DUSP3 dephosphorylation of Y182 of p38α (T180A) (p38α (T180A)): no effect
threonine phosphorylation of p38α by MKK6 (MKK6 (Homo sapiens)): did not impact
increase of the rate of threonine dephosphorylation of p38α by WIP1 (p38α; [2]): four-fold

Cc1ccc(-n2nc(C(C)(C)C)cc2NC(=O)NCc2cc(F)ccc2Oc2ccc3c(cnn3CCO)c2)cc1 [pexmetinib]
level of dual-phosphorylated p38α in HL60 cells [1]: disappeared
single-tyrosine phosphorylated p38α / phospho-tyrosine in HL60 cells (phospho-site specific antibody) [1]: increase
threonine phosphorylation of p38α in HL60 cells (phospho-site specific antibody) [1]: disappearance
p38α threonine phosphorylation in cells harvested immediately after addition of inhibitor [1]: completely disappeared
